Like-named read-outs stand apart in the source and are kept apart here.
How the values were obtained:
Format in all cases: physicochemical
[1] = Thermodynamic solubility; settings: for solubility thermodynamic at 24 h: thermodynamic from solid, ambient temperature, read-out: Concentration (thermodynamic solubility)
Experimental: Thermodynamic solubility studies were carried out as follows: 10 mg of prepared salts were suspended in pH 1, 4.5, 6.8 and un-buffered water (300 μL). The pH of the slurries was measured and adjusted accordingly using either 0.2M HCl solution or 0.2M sodium hydroxide solution. The slurries were agitated for 24 hours at ambient temperature using an incubator shaker.

[2] = Hydration screen (acetone/water mixtures of various water activities); settings: ambient
Experimental: Hydration screen was carried out as follows: 10 mg of prepared salts were suspended in several acetone/water mixtures of various water activities (low: aw=0.281, medium: aw=0.776 and high: aw=0.919) and agitated at ambient temperatures for 24 hr. Any recovered solids were submitted for XRPD analysis to determine any changes to form.

[3] = Salt disproportionation studies; settings: deionized water, 24 h, ambient temperature
Experimental: Salt disproportionation studies were carried out as follows: 20 mg of prepared salts were weighed into a vial and 0.5 mL of deionized water was added. The samples were then agitated for 24 h at ambient temperature. The pH of the samples was taken pre- and post-agitation. Any solids recovered were submitted for XRPD analysis to determine any changes to form.

[4] = Gravimetric vapor sorption (GVS)
Experimental: Approximately 10-20 mg of sample was placed into a mesh vapor sorption balance pan and loaded into an IGASorp Moisture Sorption Analyzer balance by Hiden Analytical. […] After completion of the sorption cycle, the sample was dried using the same procedure to 0% RH, and finally taken back to the starting point of 40% RH. The weight change during the sorption/desorption cycles were plotted, allowing for the hygroscopic nature of the sample to be determined.

[5] = 1 week stability tests (40° C./75% RH, 80° C., ambient light; XRPD and UPLC)
[6] = Salt stability studies (40° C./75% RH for 1 week, XRPD)
Experimental: Recovered salts were placed in an oven at 40° C./75% RH for 1 week, and the resultant materials were analyzed by XRPD to determine any changes to form or crystallinity.

[7] = Dynamic vapor sorption (DVS)
Experimental: Approximately, 10 mg of sample was placed into a mesh vapor sorption balance pan and loaded into a DVS-1 dynamic vapor sorption balance by Surface Measurement Systems. The sample was subjected to a ramping profile from 40-90% relative humidity (RH) at 10% increments, maintaining the sample at each step until a stable weight had been achieved (99.5% step completion). After completion of the sorption cycle, the sample was dried using the same procedure to 0% RH and then a second sorption cycle back to 40% RH. The weight change during the sorption/desorption cycles were plotted, allowing for the hygroscopic nature of the sample to be determined. XRPD analysis was then carried out on any solid retained.

[8] = pH 6.8 potassium phosphate buffer, aqueous buffer, pH 6.8 buffer
[9] = simulated gastric fluid, pH 1 buffer
[10] = high water activity aw=0.919, 24 hr
[11] = low water activity aw=0.281, 24 hr

Compound	solubility thermodynamic at 24 h ([1]; aqueous buffer, pH 4.5 buffer)	thermodynamic solubility (in words) ([1]; pH 1)	solids recovered after thermodynamic solubility study (XRPD) ([1]; pH 4.5)	thermodynamic solubility (in words) ([1]; pH 4.5)	solids recovered after thermodynamic solubility study (XRPD) ([1]; pH 6.8)	thermodynamic solubility (in words) ([1]; pH 6.8)	solubility thermodynamic at 24 h [1, 8]	solubility thermodynamic at 24 h [1, 9]	solubility thermodynamic at 24 h ([1]; un-buffered water)	solids recovered after thermodynamic solubility study (XRPD) ([1]; un-buffered water)	thermodynamic solubility (in words) ([1]; un-buffered water)	solid recovered from hydration screen (XRPD) [2, 10]	solid recovered from hydration screen (XRPD) [2, 11]	material recovered after salt disproportionation study (XRPD) [3]	change in purity after 1 week stability test (UPLC) ([5]; 80° C.)	change in purity after 1 week stability test (UPLC) ([5]; ambient light)	other results
CS(=O)(=O)O.C[C@@H]1CCc2ncc(F)cc2[C@H]2CCCN2c2ccn3ncc(c3n2)C(=O)N1 [Compound 1 mesylate]	9.3 mg/mL	moderately soluble	mesylate salt	moderately soluble	free base	low solubility	1.5 mg/mL	14.3 mg/mL	9.6 mg/mL	free base	moderately soluble	free base	a mixture of free base and salt	no change to form by XRPD analysis but crystallinity reduced	no change to purity	no change to purity	solid recovered from hydration screen (XRPD) ([2]; medium water activity aw=0.776, 24 hr): mesylate salt; RH at which the material deliquesced (GVS) ([4]; GVS humidity conditions): 30 % RH; hygroscopicity by GVS (in words) ([4]; GVS humidity conditions): high hygroscopicity; change in crystalline form after exposure to GVS conditions (post-GVS XRPD) ([4]; after GVS cycle): desolvate and become the mesylate form seen in the salt screen; mass uptake (GVS) ([4]; at 90% RH): about 32%; change in purity after 1 week stability test (UPLC) ([5]; 40° C./75% RH): no change to purity; changes to form or crystallinity after stability conditions (XRPD) ([6]; salt recovered from acetone): no changes to crystallinity or form; changes to form or crystallinity after stability conditions (XRPD) ([6]; salt recovered from isopropanol): a slight increase in crystallinity but no changes to form; changes to form or crystallinity after stability conditions (XRPD) ([6]; salt recovered from methanol): a decrease in crystallinity but no changes to form
C[C@@H]1CCc2ncc(F)cc2[C@H]2CCCN2c2ccn3ncc(c3n2)C(=O)N1.O=S(=O)(O)c1ccccc1 [Compound 1 besylate]	12.7 mg/mL	highly soluble	an unknown form	moderately soluble	poorly crystalline free base	low solubility	1.9 mg/mL	30.8 mg/mL	17.9 mg/mL	poorly crystalline free base	moderately soluble	poorly crystalline besylate salt	poorly crystalline besylate salt	poorly crystalline free base	no change to purity	no change to purity	hygroscopicity by DVS (in words) ([7]; DVS humidity conditions): low hygroscopicity; change in crystalline form after exposure to DVS conditions (post-DVS XRPD) ([7]; after DVS cycle): no changes in crystalline form; mass uptake (DVS) ([7]; at 90% RH): about 0.7%; change to form after 1 week stability test (XRPD) ([5]; 40° C./75% RH): a mixture of besylate salt and something else; change to form after 1 week stability test (XRPD) ([5]; 80° C.): no change to form; change to form after 1 week stability test (XRPD) ([5]; ambient light): no change to form; changes to form or crystallinity after stability conditions (XRPD) ([6]; salt recovered from TBME): preferred orientation but no changes to form; changes to form or crystallinity after stability conditions (XRPD) ([6]; salt recovered from THF): an increase to crystallinity but no changes to form; changes to form or crystallinity after stability conditions (XRPD) ([6]; salt recovered from ethanol): a decrease in crystallinity

Reference: patent US20190247398A1, “FORMULATIONS OF A MACROCYCLIC TRK KINASE INHIBITOR” (Array BioPharma Inc., priority 2017, published 2019)
